Where two headings read alike, the source gives them in different places.
Tests used:
[1] = molecular target: T1, human albumin (HA) (Homo sapiens, UniProt P02768); experiment: SPR Langmuir isotherm of HA adsorption on ligand-functionalized sensor chips; format: binding; details: read-out: Kd of HA on SPR sensor modified with different ligands
Experimental: Langmuir Isotherm: HA was dissolved in PB to make solutions with concentration range from 0.1 mg/mL to 2.0 mg/mL for adsorption study. Such HA solutions were pumped through the flow cell in low to high sequence with 20 min. adsorption time for each solution. Between each HA adsorption session, buffer was used to rinse off unbound protein residue for 20 min. PB signal from selected reference channels was used as baseline.
Prior to further analysis, the raw SPR data, absolute maximum absorption angle versus time, was referenced to a baseline reading. A 3-point running average was applied to reduce noise.
The values of SPR signal shift (in degrees) induced by HA solutions of different concentrations were manually identified. For Langmuir adsorption model fitting, the SPR signal shifts were converted to fractional occupancy of adsorption sites (θ) by assuming 0% and 100% site occupancy under 0 mg/mL and 2 mg/mL HA solution treatment, respectively. After plotting the concentration on x-axis and θ on y-axis, the data was fitted to a Langmuir isotherm model with equation
The adsorption constant, Ka, was obtained under the best fitting condition. The desorption constant.

[2] = molecular target: T1, human albumin (HA); experiment: SPR adsorption and desorption cycles of HA on functionalized chips with release agents; format: binding; details: for SPR angle shift after HA binding: 2 mg/mL HA, functionalized SPR chip; for Release percentage (highest observed; %) NaSCN (2M): release agent NaSCN 2M; for Release percentage (highest observed; %) SDS (35 mM): release agent SDS 35 mM; for Release percentage (highest observed; %) pH 3.6: release by pH 3.6 buffer; for release of bound HA, SPR results: CB chips, quoted for comparison with column
Experimental: SPR tests: A temperature controlled NanoSPR8 Model 481 device with a 4-channel flow cell was used and calibration and warm up were performed (2 hr) prior to tests. Two flow cell channels were set as reference in all tests. Basic solution with surfactant (0.1 M NaOH and 1% SDS). acidic solution (0.1 M HCl), and water were used to clean the testing flow cell and tubing system.
A phosphate buffer solution (PB) for SPR studies was prepared by dissolving 21.48 g Na2HPO4 and 3.11 g KH2PO4 in 1 L Milli-Q water for SPR tests. With this buffer a variety of solutions were prepared: NaCl. Na2SO4 and NaSCN was dissolved in the PB to prepare a 2 M solution. Sodium dodecyl sulfate (SDS) solution of 1 wt % (˜35 mM) was prepared by dissolving SDS in PB with aid of bath sonication. Fatty acid solutions were made by pipetting fatty acid into PB and bath sonicating. Linoleic acid solution (LA) included 1.8 μL of LA and 10 mL PB. Fatty acid mix solution (FA mix) was prepared by dispersing 1.8 μL linoleic acid, 1.05 μL oleic acid and 1.08 μL palmitic acid in 10 mL PB. FA mix was an inhomogeneous emulsion due to the limited solubility of fatty acids even with the aid of bath sonication.
[…] The test was carried out in sequence of HA solution, buffer rinse, releasing agent rinse, buffer rinse, in cycles after an initial PB rinse. Three absorption and desorption cycles were performed on each sample for repeatability/stability. The first two cycles used the same release agents of interest and the third cycle used a reference release agent, usually 2 M NaSCN.
Percentage of HA released by different release agents was calculated by dividing the value difference between the […] adsorption SPR peak shift value (‘Adsorb’ in FIG. 7) and post-release signal value (‘Release’ in FIG. 7) using
SPR shift has a strong dependence on solution conditions, thus one can only compare shift signals after a buffer rinse. The initial sensor baseline is set to zero. For the first cycle, after initial HA exposure and buffer rinse a shift of 0.225 is seen corresponding to full HA coverage. After LA exposure and buffer rinse a drop in shift 0.122 is seen instead of the ideal zero if HA is completely released to initial state. The percent released is calculated as (0.225-0.122)/0.225 or ˜46%. […] Even though the total amount of captured protein remains stable, an increasing amount of un-released protein over cycles was observed. Un-releasable protein was expected due to fouling onto unprotected surface of desorbed surface chemistry and practical limitations of buffer rinse times. […] SPR angle shifts and releasability percent as a function of surface functionalization and release chemical are summarized in Table 2.

[3] = molecular target: T2, human albumin indoxyl sulfate complex (HA-IS) (Homo sapiens, UniProt P02768); experiment: Adsorption column of CB-functionalized agarose beads with HA-IS, BCA assay of eluent; format: binding; details: for release of HA bound to the column: release capacity compared to binding capacity
T2 construct: purchased Sigma-Aldrich
T2 sequence (P02768 25-609, one chain of several): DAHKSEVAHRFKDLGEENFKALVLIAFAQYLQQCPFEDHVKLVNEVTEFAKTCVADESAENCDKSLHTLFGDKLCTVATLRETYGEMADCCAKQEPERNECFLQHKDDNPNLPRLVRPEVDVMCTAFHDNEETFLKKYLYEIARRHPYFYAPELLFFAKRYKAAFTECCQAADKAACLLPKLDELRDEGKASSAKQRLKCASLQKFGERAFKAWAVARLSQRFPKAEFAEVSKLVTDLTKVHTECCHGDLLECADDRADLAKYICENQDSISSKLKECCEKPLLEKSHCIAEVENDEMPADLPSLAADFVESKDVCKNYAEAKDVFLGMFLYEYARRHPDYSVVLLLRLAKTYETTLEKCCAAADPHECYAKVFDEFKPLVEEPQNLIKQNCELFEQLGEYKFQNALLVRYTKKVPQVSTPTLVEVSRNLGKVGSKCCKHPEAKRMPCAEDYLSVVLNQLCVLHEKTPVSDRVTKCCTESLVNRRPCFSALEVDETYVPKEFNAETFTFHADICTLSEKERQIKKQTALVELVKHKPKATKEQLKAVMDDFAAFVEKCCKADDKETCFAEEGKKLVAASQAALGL
From the text: Adsorption column (set-up): Devcon 5-minute epoxy in Dev-tube (ITW Polymer Adhesives, USA) was used on all epoxied parts of the column and was allowed to cure for an hour before use. Agarose beads functionalized with Cibacron Blue dye and suspended in 20% ethanol and 0.1 M KH2PO4 (Blue Sepharose Fast Flow 6, GE Healthcare, USA) was obtained and used as-is.
As shown at FIGS. 5A and 5C, glass tube 15a holds agarose beads functionalized with human albumin binding chemistry Cibacron Blue dye, and a barbed inlet/outlet 15b with Luer lock and needle tip is included to flow a solution in and out of glass tube 15a. An interchangeable solution reservoir feed 15c is included. Specifically, glass tube 15a (inner diameter=4 mm) was cut to 4.1 cm (0.52 mL volume). Two sheets of 10.0 μm pore size Teflon membrane filters (Sterlitech Corp., USA) covered the eluent end of the tube and were sealed around the edge with larger diameter elastic tubing (Tygon SE-200, Saint-Gobain Corp., USA) with excess membrane trimmed by knife. The tubing was secured to the tube via glass-compatible glue (Loctite, Henkel AG & Co. KGaA. Germany) and then epoxied to prevent air leakage. The beads in their suspension fluid (0.739 mL total slurry) were pipetted into the tube on top of the membrane seal and drained to form a bed of beads. The other end of the tube was sealed with membrane filters and tubing in a similar manner. Both ends 15b of the bead bed tube were connected to a Luer lock needle assembly that were epoxied to input tubing to prevent fluid leakage. The solution reservoir 15c included a syringe and a Luer lock connection. The column was suspended vertically and syringe pump (Model NE 300, New Era Pump Systems, Inc., USA) set to 4.0 mL/min with 125-250 μL samples collected at time points with lag time experimentally accounted for. Replacing of solutions occurred by switching out the syringe at the base of the Luer lock needle assembly in 15b, ensuring no air bubbles were introduced.
A phosphate buffer (PB) (pH 7.4) for the adsorption column was prepared to mimic the salt composition of human blood serum. 144.3 mg/L CaCl2), 4.26 g/L Na2HPO4, 612.4 mg/L KH2PO4, 85.7 mg/L MgCl2, and 4.68 g/L NaCl were dissolved in HPLC-grade submicron filtered water under stirring and heat, then filtered through a 10.0 μm membrane filter. NaCl was purchased from EMD Chemicals Inc. (Germany): all other chemicals were obtained from Sigma-Aldrich (USA). NaSCN, indoxyl sulfate, and HA solutions were prepared by simple dissolution in PB. 0.58 mM linoleic acid (LA) solution was prepared by pipetting liquid LA into phosphate buffer and sonicating in 10-minute increments until micelles were formed and evenly distributed, indicated by the solution becoming uniformly cloudy. Solutions of micro BCA protein assay were prepared as instructed in a kit obtained from Thermo Scientific (USA).
In cycles, phosphate buffer, HA-IS complex solution, phosphate buffer, and then release agents (linoleic acid or NaSCN) were pumped through the column and the eluent was collected. CB-functionalized beads were expected to adsorb HA-IS and cause the dissociation of IS from the captured HA. Release agents were expected to cause desorption of captured IS-free HA from the adsorption column. These adsorption and desorption behaviors were studied by optical absorbance at 280 nm of the eluent proportional to HA-IS concentration. […] Then both LA and NaSCN release HA from the adsorption column. […] Without wishing to be bound by theory, it is thought that the delayed LA release was caused by LA micelles dissolving at the buffer solution exchange front where concentration drops below the critical micelle concentration (0.1 mM) giving more free-floating molecules of LA capable of release. This release profile may be optimized by multiple shorter buffer/LA cycles.
Bicinchoninic acid (BCA) assay is a protein sensitive quantification method which was used in this example to measure the concentration of HA. […]

[4] = molecular target: HSA (Homo sapiens, UniProt P02768); experiment: HSA adsorption/desorption on Cibacron blue column with LA solutions of varying concentration; format: binding; details: LA 8 μl/10 ml, HSA 40 mg/ml, CB beads
Chain of HSA (P02768 25-609): as the sequence (P02768 25-609, one chain of several) above
Experimental: To test the aforementioned hypotheses, a series of experiments were conducted using LA solutions of varying concentrations and HSA solutions with a concentration of 40 mg/ml. […] The first adsorption-desorption cycle was executed with phosphate buffer serving as a mock release agent to reveal the actual desorption strength of the release agent. The amount of HSA released by LA was quantified by integrating the area beneath the release session curve and subtracting the baseline corresponding to the phosphate buffer rinse. This value represents the fraction of HSA that can be manipulated by the LA solution in a reversible manner. In this context, the adsorption of this fraction of HSA onto the Cibacron blue functionalized beads (CB beads) was considered reversible by LA. Subsequently, the reversible adsorption capacity of CB beads and the albumin release peak height, from FIG. 11A, were plotted against the LA solution concentration, as shown in FIG. 11B.

[5] = cited from earlier work
[6] = with respect to a monolayer protein binding signal strength

T1 sequence (P02768 25-609): as the sequence (P02768 25-609, one chain of several) above

Structure (SMILES): Nc1c(S(=O)(=O)O)cc(Nc2ccc(Nc3nc(Cl)nc(Nc4ccccc4S(=O)(=O)O)n3)c(S(=O)(=O)O)c2)c2c1C(=O)c1ccccc1C2=O [Cibacron Blue]
- Kd [1]: 3000 nM
- SPR angle shift after HA binding ([2]; listed as CB): 0.25 °
- SPR angle shift after HA binding ([2]; listed as Cibacron Blue (CB)): ~0.25 °
- monolayer averaged SPR signal shift ([2]; average over chips (CB n=76; capric acid n=50)): 0.23 °
- Release percentage (highest observed; %) Na2SO4 (2M) ([2]; release agent Na2SO4 2M): 12.7%
- Release percentage (highest observed; %) NaCl (2M) ([2]; release agent NaCl 2M): 34%
- Release percentage (highest observed; %) NaSCN (2M) [2]: 78.0%
- Release percentage (highest observed; %) SDS (35 mM) [2]: 93.0%
- Release percentage (highest observed; %) FA mix ([2]; release agent fatty acid mix): 49.5%
- Release percentage (highest observed; %) lbp (0.1 mM) ([2]; release agent lbp 0.1 mM): 0%
- Release percentage (highest observed; %) LA (0.6 mM) ([2]; release agent linoleic acid 0.6 mM): 44.1%
- Release percentage (highest observed; %) pH 3.6 [2]: 0%
- Human serum albumin desorption percent, release agent Fatty Acid Mix [2, 6]: 37.4 ± 14.2%
- Human serum albumin desorption percent, release agent Linoleic Acid [2, 6]: 31.0 ± 18.9%
- Human serum albumin desorption percent, release agent NaSCN [2, 6]: 65.0 ± 12.3%

Structure (SMILES): Nc1ccc2c(O)c(N=Nc3ccc(N=Nc4ccc(N=Nc5cc(S(=O)(=O)[O-])c6cccc(S(=O)(=O)[O-])c6c5)c5ccccc45)c4ccc(S(=O)(=O)[O-])cc34)c(S(=O)(=O)[O-])cc2c1.[Na+].[Na+].[Na+].[Na+] [Direct Blue 71]
- Kd ([1]; HA 0.1-2.0 mg/mL in PB, Langmuir fit, Kd=1/Ka): 1100 nM
- SPR angle shift after HA binding [2]: ~0.19 °
- SPR angle shift after HA binding ([2]; listed as DB71): 0.19 °
- Release percentage (highest observed; %) NaSCN (2M) [2]: 0%
- Release percentage (highest observed; %) SDS (35 mM) [2]: 0%

Structure (SMILES): CCCCC/C=C\C/C=C\CCCCCCCC(=O)O [LA, linoleic acid]
- release of bound HA, SPR results ([2]; SPR): 31%
- albumin release capacity on CB surface ([2]; SPR, CB surface, concentrations of about 0.5 μg/mL): 44.1%
- release capacity ([3]; CB-agarose bead column, summary b116): ~0.2 μmol HA/mL beads
- release capacity ([3]; CB-agarose bead column, summary b116, per mL beads): 13.5 mg/mL
- release amounts ([3]; Cibacron blue agarose beads, plasma compatible linoleic acid as release agent): 0.23 μmol HA/mL beads
- release capacity ([3]; cycle 1, CB-agarose bead column, BCA assay): 0.177 μmol HA/mL beads
- release capacity ([3]; cycle 2, CB-agarose bead column, BCA assay): 0.232 μmol HA/mL beads
- release of HA bound to the column [3]: at least 47%
- HSA desorption capacity, previous study ([3]; value from the previous study): 15.3 mg/ml beads
- HSA desorption capacity [4]: 19.44 mg/ml beads
- solubility in water [5]: insoluble

Structure (SMILES): N#C[S-].[Na+] [NaSCN, reference compound]
- release of bound HA, SPR results ([2]; SPR): 65%
- release capacity ([3]; cycle 3, CB-agarose bead column, BCA assay): 0.292 μmol HA/mL beads
- release of HA bound to the column [3]: ≥ 79%

Structure (SMILES): CCCCCCCC [Octane (C8; Alkane), Octane]
- SPR angle shift after HA binding [2]: ~0.11 °
- SPR angle shift after HA binding ([2]; listed as Octane): 0.110 °
- Release percentage (highest observed; %) NaSCN (2M) [2]: 51.4%
- Release percentage (highest observed; %) SDS (35 mM) [2]: 29.5%

Structure (SMILES): N[C@@H](Cc1c[nH]c2ccccc12)C(=O)O [Tryptophan (COOH term), Tryptophan]
- SPR angle shift after HA binding [2]: ~0.19 °
- SPR angle shift after HA binding ([2]; listed as tryptophan of —COOH terminus): 0.19 °
- Release percentage (highest observed; %) NaSCN (2M) [2]: 0%
- Release percentage (highest observed; %) pH 3.6 [2]: 0%

Structure (SMILES): N[C@@H](Cc1c[nH]c2ccccc12)C(=O)O [Tryptophan (NH2 term), Tryptophan]
- SPR angle shift after HA binding [2]: ~0.17 °
- SPR angle shift after HA binding ([2]; listed as tryptophan of —NH2 terminus): 0.170 °
- Release percentage (highest observed; %) NaSCN (2M) [2]: 15.0%
- Release percentage (highest observed; %) SDS (35 mM) [2]: 0%
- Release percentage (highest observed; %) pH 3.6 [2]: 0%

Reference: patent US20260166211A1, “SYSTEM FOR REMOVING PROTEIN BOUND UREMIC TOXINS DURING HEMODIALYSIS” (University of Washington, priority 2022, published 2026)
